Where “and” joins values, the source holds several entries; their conditions need not be identical. Equal values may be shown once.

Test [1] is described as follows: Cleaning test on soiled aluminum panels, corn oil soil. The note with it: 0.05% alone in water, no matrix, 120° F., 90 seconds. The procedure:
(§1) A series of commercially available cleaners as well as certain surfactants and related compounds in water, alone, without a builder matrix were tested for cleaning performance. The cleaning effectiveness of each cleaner composition was tested follows: • 1. Soiled aluminum panels, 1″×4″, were used as the test specimens. […] Mineral oil and corn oil, each modified by the addition of 10% graphite, were used as the soils for each screening. Soil patches on the aluminum were deposited immediately before testing.
(§2) The test specimens were cleaned by low-impingement, continuously circulated aqueous working baths to determine chemical cleaning strength. The test also screened for foaminess. The continuous circulation promoted foam formation. Cleaning effectiveness was evaluated gravimetrically and the percentage of oily contaminant removed by the formulation was calculated by comparing soil weights before and after cleaning. This technique is a common procedure in analytic chemistry and will be familiar to those of skill in the art. The results of these experiments are summarized in Tables 1 and 3 as percent reduction of soil.

Test [2] can be described thus: Cleaning test on soiled aluminum panels, mineral oil soil. The note with it: 0.05% alone in water, no matrix, 120° F., 90 seconds. The protocol:
as §1, §2

Take tri(propylene glycol) propyl ether: the “% reduction of soil, Corn Oil, single panel” value in test [1] is 90.0% and 88.9% and 95.0%. Besides, the “% reduction of soil, Min Oil, single panel” value in test [2] is 93.9% and 100.0% (2×).
`OCCOCCOCc1ccccc1` [Surfactant #7, benzyl alcohol ethoxylate, C6H5CH2—O—(CH2—CH2—O)n—H, n=2]: the “% reduction of soil, Corn Oil, single panel” value in test [1] is 92.2% and 92.0% and 91.6%. Moreover, in test [2], the “% reduction of soil, Min Oil, single panel” value was 98.9% and 100.0% (2×).

The record behind these values is patent US7923425B2, “Low-foaming, acidic low-temperature cleaner and process for cleaning surfaces” (Henkel AG & Co. KGaA, priority 2006, dated 2011).
